The subject of the assay is C3A cells. The experiment in a line: APAP-induced hepatotoxicity IC50 measurement with robotic liquid handler. In kind it is cell-based. The note with it: Homo sapiens. As for the experimental part: Using the human liver cancer cell line C3A, cultured in the bioreactor, IC50 value measurements were conducted with a robotic liquid handler (FIG. 16).

Each structure is given as a SMILES string.

Turning to `CC(=O)Nc1ccc(O)cc1` [APAP, acetaminophen], the half-maximal inhibitory concentration (IC50) was 80 mM (C3A cells cultured in Si3N4—SC (static)), 71 mM (C3A cells cultured in Si3N4—SCP (Si3N4 sandwich perfusion in 96-well bioreactor)) and 84.6 mM (C3A cells cultured in collagen gel sandwich (static)).

One may read the IC50 as the concentration needed to halve the response being measured. Read a high IC50 as a need for much substance.
